Experimental data: ChEMBL document CHEMBL1133162, “Tyrosine kinase inhibitors. 17. Irreversible inhibitors of the epidermal growth factor receptor: 4-(phenylamino)quinazoline- and 4-(phenylamino)pyrido[3,2-d]pyrimidine-6-acrylamides bearing additional solubilizing functions” (J Med Chem, 2000)
The source made the active and inactive calls. The calls are words filed in the database; no cut-off is given here.

Legend:
A-431 [1] = assay: In vivo activity against A431 xenografts in mice after 60 mg/kg peroral dose; type: functional; details: route oral
A-431 [2] = assay: In vivo activity against A431 xenografts in mice, difference in days for treated(T) and control(C) tumors to reach 750 mg at 60 mg/kg peroral dose for 10-24 days; type: functional; details: route oral
[3] = biological target: Receptor tyrosine-protein kinase erbB-2 (Homo sapiens, UniProt P04626)
Receptor tyrosine-protein kinase erbB-2, sequence (P04626 whole entry): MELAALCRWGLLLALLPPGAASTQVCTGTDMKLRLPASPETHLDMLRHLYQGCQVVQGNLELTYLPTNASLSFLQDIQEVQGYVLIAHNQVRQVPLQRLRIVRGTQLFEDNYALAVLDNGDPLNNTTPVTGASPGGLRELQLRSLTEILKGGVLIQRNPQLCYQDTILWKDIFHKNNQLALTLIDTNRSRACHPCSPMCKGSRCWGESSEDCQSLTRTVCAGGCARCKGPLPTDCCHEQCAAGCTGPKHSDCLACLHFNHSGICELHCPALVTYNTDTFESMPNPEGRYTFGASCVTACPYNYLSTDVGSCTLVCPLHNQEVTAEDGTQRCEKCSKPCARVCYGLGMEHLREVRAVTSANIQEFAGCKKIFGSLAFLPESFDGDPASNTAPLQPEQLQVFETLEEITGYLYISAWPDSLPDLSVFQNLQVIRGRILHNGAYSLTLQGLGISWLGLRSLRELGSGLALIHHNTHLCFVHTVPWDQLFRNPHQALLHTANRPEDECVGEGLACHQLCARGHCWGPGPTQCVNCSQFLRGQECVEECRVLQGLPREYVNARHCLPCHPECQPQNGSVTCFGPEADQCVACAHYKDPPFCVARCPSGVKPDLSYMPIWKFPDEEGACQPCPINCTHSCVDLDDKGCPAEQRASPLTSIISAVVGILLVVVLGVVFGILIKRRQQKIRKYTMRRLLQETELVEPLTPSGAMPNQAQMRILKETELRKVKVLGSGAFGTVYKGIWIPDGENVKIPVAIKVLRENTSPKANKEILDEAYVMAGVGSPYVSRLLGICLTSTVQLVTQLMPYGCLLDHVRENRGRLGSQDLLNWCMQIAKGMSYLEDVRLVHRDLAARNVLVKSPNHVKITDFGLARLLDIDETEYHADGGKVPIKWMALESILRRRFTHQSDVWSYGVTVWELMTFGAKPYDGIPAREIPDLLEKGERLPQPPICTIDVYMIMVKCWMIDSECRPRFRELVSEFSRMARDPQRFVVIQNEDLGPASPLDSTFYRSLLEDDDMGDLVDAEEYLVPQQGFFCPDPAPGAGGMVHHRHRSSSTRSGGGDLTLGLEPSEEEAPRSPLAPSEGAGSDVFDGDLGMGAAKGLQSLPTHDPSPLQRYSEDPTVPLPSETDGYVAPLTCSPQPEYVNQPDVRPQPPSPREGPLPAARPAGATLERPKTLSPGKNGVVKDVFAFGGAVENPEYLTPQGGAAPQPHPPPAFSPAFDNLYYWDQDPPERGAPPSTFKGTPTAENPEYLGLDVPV
Description: Inhibition of autophosphorylation of ERBB2 receptor kinase in MDA-MB 453 cells

Mus musculus [4] = assay: In vivo activity against xenografts in mice, ratio of treated/control tumor mass at 10 mg/kg peroral dose for 10-24 days; type: functional; details: route oral
A-431 [5] = assay: In vivo activity against A431 xenografts in mice, difference in days for treated(T) and control(C) tumors to reach 750 mg at 10 mg/kg intraperitoneal dose for 13-26 days
Mus musculus [6] = assay: In vivo activity against xenografts in mice, ratio of treated/control tumor mass at 10 mg/kg intraperitoneal dose
[7] = biological target: T1, Epidermal growth factor receptor (Homo sapiens, UniProt P00533)
T1 sequence (P00533 whole entry): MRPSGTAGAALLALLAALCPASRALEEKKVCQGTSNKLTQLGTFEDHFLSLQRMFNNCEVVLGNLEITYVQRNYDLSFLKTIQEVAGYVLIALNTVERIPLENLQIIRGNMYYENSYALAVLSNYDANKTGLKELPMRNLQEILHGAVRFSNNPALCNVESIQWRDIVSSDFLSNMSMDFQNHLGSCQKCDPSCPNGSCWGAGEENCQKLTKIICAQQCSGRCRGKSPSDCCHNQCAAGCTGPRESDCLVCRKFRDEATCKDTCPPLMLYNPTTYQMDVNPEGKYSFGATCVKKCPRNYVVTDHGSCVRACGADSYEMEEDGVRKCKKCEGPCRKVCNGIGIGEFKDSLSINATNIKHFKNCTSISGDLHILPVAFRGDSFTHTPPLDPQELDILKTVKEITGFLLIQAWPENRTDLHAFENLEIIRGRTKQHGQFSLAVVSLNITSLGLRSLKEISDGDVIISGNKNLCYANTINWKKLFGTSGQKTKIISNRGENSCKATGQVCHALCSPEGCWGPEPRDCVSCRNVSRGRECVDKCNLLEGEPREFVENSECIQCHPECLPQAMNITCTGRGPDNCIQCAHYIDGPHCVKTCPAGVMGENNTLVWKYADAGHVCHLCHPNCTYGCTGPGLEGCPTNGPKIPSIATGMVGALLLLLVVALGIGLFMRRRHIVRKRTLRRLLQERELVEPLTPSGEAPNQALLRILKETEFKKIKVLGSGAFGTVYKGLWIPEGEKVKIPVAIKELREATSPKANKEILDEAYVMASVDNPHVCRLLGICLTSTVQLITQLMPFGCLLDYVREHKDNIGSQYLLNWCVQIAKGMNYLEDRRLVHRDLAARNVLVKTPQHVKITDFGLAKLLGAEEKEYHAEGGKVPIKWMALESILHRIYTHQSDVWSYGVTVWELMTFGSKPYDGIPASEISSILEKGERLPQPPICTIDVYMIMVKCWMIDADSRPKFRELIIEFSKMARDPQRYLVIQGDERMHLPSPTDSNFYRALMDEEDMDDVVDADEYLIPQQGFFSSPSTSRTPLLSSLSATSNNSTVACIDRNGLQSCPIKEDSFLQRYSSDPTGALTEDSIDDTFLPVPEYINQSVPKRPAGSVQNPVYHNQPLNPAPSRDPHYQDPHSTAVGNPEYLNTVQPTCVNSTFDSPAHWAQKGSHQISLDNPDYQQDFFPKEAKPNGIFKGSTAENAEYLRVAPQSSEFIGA
Description: Inhibition of phosphorylation of a polyglutamic acid/tyrosine random copolymer by EGFR enzyme prepared from human A431 carcinoma cell vesicles by immunoaffinity chromatography

[8] = biological target: T1, Epidermal growth factor receptor; remark: listed apart in the source
Description: Inhibition of EGF-stimulated autophosphorylation of EGFR enzyme in A431 cells detected by immunoblotting

Caco-2 [9] = assay: Absorptive transport in Caco-2 cells in comparison to metoprolol; type: functional, cell-based; details: Homo sapiens
Caco-2 [10] = assay: permeability in Caco-2 cells; yes; type: functional, cell-based; details: Homo sapiens
Caco-2 [11] = assay: Efflux in Caco-2 cells; yes; type: functional, cell-based; details: Homo sapiens
A-431 [12] = assay: In vivo activity against A431 xenografts in mice, ratio of treated/control tumor mass at 18 mg/kg peroral dose for 10-24 days; details: route oral
A-431 [13] = assay: In vivo activity against A431 xenografts in mice, ratio of treated/control tumor mass at 5 mg/kg peroral dose for 10-24 days; type: functional; details: route oral
Caco-2 [14] = assay: Absorptive transport in Caco-2 cells in comparison to metoprolol.; type: functional, cell-based; details: Homo sapiens
Caco-2 [15] = assay: permeability in Caco-2 cells; no; type: functional, cell-based; details: Homo sapiens
Caco-2 [16] = assay: Efflux in Caco-2 cells; no; type: functional, cell-based; details: Homo sapiens
Caco-2 [17] = assay: Secretory Transport in Caco-2 cells in comparison to metoprolol; type: functional, cell-based; parameters: unit not given here; details: Homo sapiens
A-431 [18] = assay: In vivo activity against A431 xenografts in mice, ratio of treated/control A431 cell tumor mass at 20 mg/kg peroral dose for 10-24 days; type: functional; details: route oral
A-431 [19] = assay: In vivo activity against A431 xenografts in mice, difference in days for treated(T) and control(C) tumors to reach 750 mg at 20 mg/kg peroral dose for 10-24 days; type: functional; details: route oral
A-431 [20] = assay: In vivo activity against A431 xenografts in mice, ratio of treated/control tumor mass at 20 mg/kg peroral dose for 15-19 days; details: route oral

Structure (SMILES)	IC50 [3] [nM]	IC50 [7] [nM]	IC50 [8] [nM]	further results
C=CC(=O)Nc1cc2c(Nc3cccc(Br)c3)ncnc2cc1OCCCN1CCOCC1	6.4			Weight change (A-431 [1]): -1.6 g; T-C (A-431 [2]): 29.8 days; T/C (Mus musculus [4]): 0%; T-C (A-431 [5]): 21.5 days; T/C (Mus musculus [6]): 18%
C=CC(=O)Nc1ccc2ncnc(Nc3cccc(C)c3)c2c1	22			
CC[C@]1(O)C[C@@H]2CN(CCc3c([nH]c4ccccc34)[C@@](C(=O)OC)(c3cc4c(cc3OC)N(C)[C@H]3[C@@](O)(C(=O)OC)[C@H](OC(C)=O)[C@]5(CC)C=CCN6CC[C@]43[C@@H]65)C2)C1				Permeability (Caco-2 [9]): 1.54 ·10e6; Permeability (Caco-2 [10]): Active; Permeability (Caco-2 [11]): Active
C=CC(=O)Nc1ccc2ncnc(Nc3ccc(OCCN(C)C)c(Br)c3)c2c1		27	7690	
C=CC(=O)Nc1ccc2ncnc(Nc3ccc(CN(C)C)c(Br)c3)c2c1		45	416	
C=CC(=O)N(C)c1nc2c(Nc3ccc(F)c(Cl)c3)ncnc2cc1OCCCN1CCOCC1	> 200	20	88	
C=CC(=O)Nc1cc2c(Nc3ccc(F)c(Cl)c3)ncnc2cc1OCCCN1CCOCC1 [CANERTINIB]				Last therapy day (A-431 [12]): 0%; Last therapy day (A-431 [13]): 4%; Permeability (Caco-2 [14]): 49.3 ·10e6; Cell permeation (Caco-2 [15]): Impermeable; Efflux (Caco-2 [16]): Impermeable
COCCc1ccc(OCC(O)CNC(C)C)cc1 (stereo unspecified)				Permeability (Caco-2 [9]): 21.4 ·10e6; Permeability (Caco-2 [15]): Impermeable; Permeability (Caco-2 [16]): Impermeable

The next lines start with results.

IC50 [3] [nM]	IC50 [7] [nM]	IC50 [8] [nM]	Structure (SMILES)	further results
	2	18	C=CC(=O)Nc1cc2c(Nc3cccc(C)c3)ncnc2cc1OCCCN1CCN(C)CC1	
182	6.6	264	C=CC(=O)Nc1nc2c(Nc3ccc(F)c(Cl)c3)ncnc2cc1OCCCN1CCN(C)CC1	
	0.97	377	C=CC(=O)Nc1nc2c(Nc3ccc(F)c(Cl)c3)ncnc2cc1OCCOC	
	0.78	196	C=CC(=O)Nc1cc2c(Nc3cccc(Br)c3)ncnc2cc1SCCCN(CC)CC	
8.2	1.8	4.7	C=CC(=O)Nc1cc2c(Nc3ccc(F)c(Br)c3)ncnc2cc1OCCCN1CCOCC1	
	1.7	3	C=CC(=O)Nc1cc2c(Nc3cccc(Br)c3)ncnc2cc1OCCCN1CCN(C)CC1	
> 5000	2.7	5100	C=CC(=O)Nc1nc2c(Nc3ccc(F)c(Cl)c3)ncnc2cc1CCCCN1CCOCC1	
125	0.95	291	C=CC(=O)Nc1nc2c(Nc3ccc(F)c(Cl)c3)ncnc2cc1OC	
12	0.16	119	C=CC(=O)Nc1nc2c(Nc3ccc(F)c(Cl)c3)ncnc2cc1/C=C/CCN1CCOCC1	
189	1.5	434	C=CC(=O)Nc1nc2c(Nc3ccc(F)c(Cl)c3)ncnc2cc1OCCCN1CCOCC1	Permeability (Caco-2 [17]): 81.2; T/C (A-431 [18]): 69%; Permeability (Caco-2 [9]): 59.6 ·10e6; Permeability limited (Caco-2 [15]): Impermeable; T-C (A-431 [19]): 9.3 days; Efflux (Caco-2 [16]): Impermeable; Weight change (A-431 [20]): -0.5 g
	1.7		C=CC(=O)Nc1cc2c(Nc3ccc(F)c(Cl)c3)ncnc2cc1OCCOCCCCO	
	3.9	7.9	C=CC(=O)Nc1cc2c(Nc3cccc(Br)c3)ncnc2cc1OCCCCN(C)C	
